Test results: PMC7982426 (Acta Pharmaceutica Sinica. B, 2020)

Target: G protein-coupled receptor 35 (GPR35) (Homo sapiens, UniProt Q9HC97)
Test: GPR35 internalization by flow cytometry in NCM460 cells
Assay type: cell-based

Chain of G protein-coupled receptor 35 (GPR35) (Q9HC97 whole entry): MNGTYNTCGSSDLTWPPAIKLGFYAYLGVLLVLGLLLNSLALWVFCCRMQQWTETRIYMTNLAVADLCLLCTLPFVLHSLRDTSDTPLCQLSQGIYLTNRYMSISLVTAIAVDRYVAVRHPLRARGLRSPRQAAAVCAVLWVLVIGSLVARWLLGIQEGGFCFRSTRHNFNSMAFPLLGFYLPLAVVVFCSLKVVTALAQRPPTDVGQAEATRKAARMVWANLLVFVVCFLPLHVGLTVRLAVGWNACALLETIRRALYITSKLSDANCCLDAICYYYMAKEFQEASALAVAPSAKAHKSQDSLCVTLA

**Q.** With O=C(O)c1cc(=O)c2ccccc2[nH]1 [KA, kynurenic acid] as the compound, how does the EC50 read?
**A.** 46.2 µM
